Laboratory results from article PMC4366162 (PLoS ONE, 2015).
pIC50: −log10 of the molar value. Structures can show the parent of a compound that is named as a salt. Where two headings read alike, the source gives them in different places.

Key:
[1] = system: LPS-induced NO production in rat kidney mesangial cells (HBZY-1); experiment: Total nitrite assay (Griess): inhibition of LPS-induced NO production in kidney mesangial cells; format: cell-based; conditions: for pIC50: read-out: IC50 against LPS-induced NO production (total nitrite)
Method: (§1) Rat mesangial HBZY-1 cells were obtained from China Center for Type Culture Collection (Wuhan, China). Cells were maintained in high glucose DMEM medium (Invitrogen, USA) supplemented with 10% heat-inactivated fetal bovine serum (FBS), 25 mM HEPES, 2 mM L-glutamine, 0.1 mM nonessential amino acids, 1.0 mM sodium pyruvate, 50 U/mL penicillin, and 50 μg/mL streptomycin at 37°C and 5% CO2. The cell passage number used for the following investigation was between 10 to 20 passages.
Mesangial cells were plated on 48-well plates at a density of 50,000 cells per well overnight in DMEM media containing 2% FBS. Cells were treated by flavonoid compounds at a series of concentrations from 0, 0.05, 0.1, 0.5, 1, 5, 10 to 50 μM or 0, 1, 5, 10, 50, 100 to 200 μM based on the initial activity range with or without 10 ng/mL LPS. Total nitrite production in the treatment media after 48 h was measured with Griess assay. Briefly, 100 μL media was mixed with 25 μL of reagent І (1% sulfanilamide in 5% phosphoric acid) and then 25 μL of reagent II (0.1% N-1-napthylethylenediamine dihydrochloride in water). The optical absorbance of the resulting solution was recorded at 540 nm with a 318C-microplate reader (Sanco Instrument Ltd. Shanghai, China) after 20 min. […] IC50 values were obtained using the dose-response analysis provided by the GraphPad Prism software.
All of the hydroxylated flavones were abbreviated as the positions of hydroxyl groups followed by—HO. The total production of nitrite in the treatment media was measured with Griess assay at 48 h post 10 ng/mL LPS stimulation.

[2] = NO radical quenching study (spontaneous NO from sodium nitroprusside, Griess assay); conditions: sodium nitroprusside 5 mM in solution, read-out: IC50 of inhibition of spontaneously generated NO radicals from sodium nitroprusside
Method: Spontaneous generation of NO in solutions was achieved by a freshly prepared sodium nitroprusside stock solution in water (50 mM). The level of total nitrile production was determined by the Griess assay with the standard curve of sodium nitrile as described above. For the assay of NO inhibition by flavonoids, sodium nitroprusside solution (10 mM, 25 μL) was mixed with an equal volume of flavonoid solution in 50% DMSO, and the resulting solution was incubated at room temperature for 10 min. Griess reagent І and Griess reagent II (75 μL each) were subsequently added with a gap of 10 min. The optical density at 540 nm was recorded on a 318C-microplate reader after 15 min. The resulting data were processed and analyzed by the GraphPad Prism Software as described above.
Fig 3 Direct NO radical quench study with selected monohydroxylated and polyhydroxylated flavones. Spontaneous generation of NO was achieved by a freshly prepared sodium nitroprusside stock solution (5 mM) in water in Griess assay (top).

cytochrome P450 2C9 = system: cytochrome P450 2C9; set-up: method as in PMID 19515014; conditions: cited from earlier work
mesangial cells = experiment: MTT cell viability assay; format: cell-based, rat; conditions: 48 h
Method: as §1
Cells were plated overnight in growth media (5,000 cells per well) and then treated with each compound for 48 h at increasing concentrations with total DMSO at 0.1%. MTT assay was carried out as reported, and cell viability was plotted with GraphPad Prism program.

[3] = system: phosphorylated p65 protein (NF-κB pathway); experiment: Western blot analysis of LPS-activated NF-κB pathway (phosphorylated p65); format: cell-based, rat; conditions: up to 1.0 μM, 12 h pretreatment, LPS 500 ng/mL, 15 min
Method: (§2) Cells were plated in growth media overnight at a density of 1×10^6 cells per well on a 6-well plate. […] For the western blot analysis, cells were washed with PBS and then lysed with 150 μL RIPA buffer containing protease and phosphatase inhibitor cocktail. The supernatants were collected by centrifuge at 14,000 g×10 min at 4°C and stored at -80°C. The total protein content of lysates was determined by enhanced BCA protein assay kit (Beyotime Institute of Biotechnology, Shanghai, China). Electrophoresis was carried out on a NuPAGE Novex Bis-Tris […] gel (Invitrogen, USA) under the reduced condition. After electrophoresis separation, proteins were transferred to membranes and incubated with rabbit monoclonal phospho-NF-κB-p65 antibody (3033S, 1:1000 dilution, Cell Signaling, USA), rabbit polyclonal iNOS antibody (ab3523, 1:500 dilution, Abcam, USA) or mouse monoclonal β-actin antibody (ANT009, 1:1000 dilution AntGene, China). Targeted proteins were then visualized with Qdot 625 conjugate kit (Invitrogen, USA). Gel images were captured with ZF-258 Gel Imaging System (Shanghai Jiapeng Scientific Co. Ltd, China) under illuminating light at 350 nm.
(§3) Fig 5 Western blot analysis of potential molecular targets by 6-methoxyflavone in kidney mesangial cells with LPS as the inflammatory stimuli. […]

[4] = system: inducible NO synthase (iNOS); experiment: Western blot analysis of LPS-induced iNOS protein; format: cell-based, rat; conditions: 12 h pretreatment, LPS 500 ng/mL, 24 h
Method: as §2, §3

[5] = Rattus norvegicus, HBZY-1, 48 h, rat mesangial cells, 10 ng/mL LPS, 48 h, Griess assay
[6] = Rattus norvegicus, HBZY-1, 48 h

| Compound | pIC50 [1, 5] | other results |
| --- | --- | --- |
| O=c1c(O)c(-c2ccc(O)cc2O)oc2cc(O)cc(O)c12 [2',3,4',5,7-HO, morin] | ~3.70 | – |
| O=c1c(O)c(-c2ccc(O)cc2O)oc2ccc(O)cc12 [2',3,4',6-HO, 2′,3,4′,6-tetrahydroxyflavone] | ~3.70 | – |
| O=c1c(O)c(-c2ccccc2O)oc2c(O)c(O)ccc12 [2',3,7,8-HO] | ~3.70 | – |
| O=c1cc(-c2cc(O)c(O)c(O)c2)oc2cc(O)cc(O)c12 [3',4',5',5,7-HO, tricetin] | ~3.70 | – |
| O=c1c(O)c(-c2cc(O)c(O)c(O)c2)oc2cc(O)cc(O)c12 [3,3',4',5',5,7-HO, 3,3′,4′,5,5′,7-hexahydroxyflavone] | < 3.70 | pIC50 [2]: ~2.00 |
| O=c1c(O)c(-c2ccc(O)c(O)c2)oc2c(O)c(O)cc(O)c12 [3,3',4',5,7,8-HO, 3,3′,4′,5,7,8-hexahydroxyflavone] | – | pIC50 [1, 6]: < 3.70 |
| O=c1c(O)c(-c2ccc(O)c(O)c2)oc2cc(O)cc(O)c12 [3,3',4',5,7-HO, quercetin] | 4.66 | – |
| O=c1c(O)c(-c2ccc(O)c(O)c2)oc2cc(O)ccc12 [3,3',4',7-HO, fisetin] | 4.96 | – |
| O=c1c(O)c(-c2cccc(O)c2)oc2cc(O)ccc12 [3,3',7-HO] | 4.96 | – |
| O=c1cc(-c2ccc(O)cc2)oc2cc(O)cc(O)c12 [4',5,7-HO, apigenin] | < 3.70 | – |
| O=C1O[C@H]([C@@H](O)CO)C(O)=C1O [ascorbic acid, reference compound] | – | pIC50 [2]: 3.60 |
| O=c1cc(-c2ccccc2)oc2ccc(O)cc12 [compound 1, 6-hydroxyflavone] | ~5.70 | pIC50 ([1]; rat mesangial cells, 10 ng/mL LPS, 48 h, Griess assay): 5.77; mode of inhibition of cytochrome P450 2C9 (cytochrome P450 2C9): noncompetitive inhibition; pIC50 [2]: < 3.30 |
| O=c1cc(-c2ccccc2)oc2cc(O)ccc12 [compound 2, 7-hydroxyflavone] | – | pIC50 [1, 6]: 4.34; pIC50 [2]: < 3.30 |
| O=c1cc(-c2ccccc2O)oc2ccccc12 [compound 3] | < 3.70 | – |
| O=c1c(O)c(-c2ccccc2)oc2ccccc12 [compound 4, 3-Hydroxyflavone] | < 3.70 | pIC50 [2]: < 3.30 |
| O=c1cc(-c2ccc(O)cc2)oc2ccc(O)cc12 [compound 5, 4′,6-dihydroxyflavone] | ~5.70 | – |
| O=c1cc(-c2ccc(O)cc2)oc2cccc(O)c12 [compound 6] | 4.85 | increase of IC50 against LPS-induced NO production versus flavone 5 ([1]; shift of hydroxyl group from 6-position to 5-position): 7 fold |
| O=c1c(O)c(-c2ccccc2)oc2cc(O)ccc12 [compound 7] | – | pIC50 [1, 6]: 4.57 |
| O=c1cc(-c2ccccc2)oc2c(O)c(O)ccc12 [compound 8] | 4.33 | – |
| COc1ccc2oc(-c3ccccc3)cc(=O)c2c1 [compound 9, 6-methoxyflavone] | 6.72 | cytotoxicity on mesangial cells (mesangial cells; at 1.0 μM): weak cytotoxicity; potency against LPS-induced NO production relative to 6-hydroxyflavone ([1]; more potent than 6-hydroxyflavone (IC50 1.7 μM)): 10 fold; inhibition of p65 activation (phosphorylated p65) [3]: no observable inhibition; inhibition of downstream inducible NO synthase (iNOS) upon LPS stimulation ([4]; from 200 nM to 1.0 μM): significant inhibition |
| CC(=O)Oc1ccc2oc(-c3ccccc3)cc(=O)c2c1 [compound 10, 6-Acetoxyflavone] | 6.22 | cytotoxicity on mesangial cells (mesangial cells; at 10 μM): weak cytotoxicity |
| O=c1cc(-c2ccccc2)oc2ccc(OS(=O)(=O)O)cc12 [compound 11, 6-flavone sulfate sodium salt] | 5.68 | cytotoxicity on mesangial cells (mesangial cells; at 10 μM): minimal |
| O=c1c(-c2ccc(O)cc2)coc2cc(O)ccc12 [daidzein, reference compound] | < 3.70 | – |
| Oc1ccc(/C=C/c2cc(O)cc(O)c2)cc1 [resveratrol, reference compound] | 4.96 | inhibition of downstream inducible NO synthase (iNOS) upon LPS stimulation ([4]; at 10 μM): weak inhibition |
